Columns and labels:
microglia cells [1] = assay: ROS production assay (DCFDA) in microglia cells; assay type: cell-based, Human; conditions: 1 μM of free ARVs or NPs with respect to the loaded drug, 24 h
Experimental: ROS Production Assay in Microglia Cells: The ROS generation in the microglia cells were determined using DCFDA assay. Microglia cells were plated in the white wall coated 96-well plate with density of 20,000 cells per well and grown for 16 h. The SQV, EFV, DRV, DTG, EVG and their nanoformulations were added to the cells at concentration of 1 μM with respect to the ARTs for 24 h. After 24 h, the media was collected and used to determine IL-1β, an inflammation maker using commercially available kit. The DCFDA solution was made in media at the concentration of 100 μM. 100 μL of this solution was added to each well and cells were incubated for 30 min. […] The obtained values were normalized using BCA assay.

microglia cells [2] = assay: Seahorse MitoStress assay; conditions: 500 μM, 24 h

CC(C)CN(C[C@@H](O)[C@H](Cc1ccccc1)NC(=O)O[C@H]1CO[C@H]2OCC[C@H]21)S(=O)(=O)c1ccc(N)cc1 [Darunavir]
ROS generation (microglia cells [1]): increased ROS significantly

C[C@@H]1CCO[C@H]2Cn3cc(C(=O)NCc4ccc(F)cc4F)c(=O)c(O)c3C(=O)N12 [Dolutegravir]
ROS generation (microglia cells [1]): increased ROS significantly

O=C1Nc2ccc(Cl)cc2[C@@](C#CC2CC2)(C(F)(F)F)O1 [Efavirenz]
ROS generation (microglia cells [1]): increased ROS significantly

COc1cc2c(cc1Cc1cccc(Cl)c1F)c(=O)c(C(=O)O)cn2[C@H](CO)C(C)C [Elvitegravir]
ROS generation (microglia cells [1]): increased ROS significantly

COC(=O)[C@H]1[C@@H](OC(=O)c2ccccc2)C[C@@H]2CC[C@H]1N2C [cocaine]
ATP production (microglia cells [2]): substantially decreased
basal respiration (microglia cells [2]): substantially decreased
maximal respiration (microglia cells [2]): substantially decreased

CN[C@@H](C)Cc1ccccc1 [meth, methamphetamine]
ATP production (microglia cells [2]): substantially decreased
basal respiration (microglia cells [2]): substantially decreased
maximal respiration (microglia cells [2]): substantially decreased
